Experimental data from ChEMBL document CHEMBL1201862, “PubChem BioAssay data set” (2004).
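96-well plates; 48 h exposure; 5 concentrations. Endpoints by linear interpolation between flanking doses. Not reached: highest tested concentration assigned. The concentration for 50% growth inhibition is given as GI50.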 The source made the active and inactive calls. Cut-off read from the data, not from the text of the source: active = GI50 up to about 1.1 µM and inactive = higher.

How the values were obtained:
Experiment in all cases: NCI tumour cell line growth inhibition, 48 h
[1] = test system: 786-0
[2] = test system: A498
[3] = test system: A549
[4] = test system: ACHN
[5] = test system: CCRF-CEM
[6] = test system: COLO 205
[7] = test system: DLD-1
[8] = test system: DMS-114
[9] = test system: DMS-273
[10] = test system: EKVX
[11] = test system: HCC 2998
[12] = test system: HCT-116
[13] = test system: HL-60
[14] = test system: HOP-18
[15] = test system: HOP-62
[16] = test system: HOP-92
[17] = test system: HT-29
[18] = test system: IGROV-1
[19] = test system: K562
[20] = test system: KM-20L2
[21] = test system: KM12
[22] = test system: LOX IMVI
[23] = test system: LXFL 529
[24] = test system: M19-MEL
[25] = test system: MOLT-4
[26] = test system: Malme-3M
[27] = test system: NCI-H23
[28] = test system: NCI-H460
[29] = test system: NCI-H522
[30] = test system: OVCAR-3
[31] = test system: OVCAR-5
[32] = test system: OVCAR-8
[33] = test system: RPMI-8226
[34] = test system: RXF 393
[35] = test system: SF-268
[36] = test system: SF-295
[37] = test system: SF-539
[38] = test system: SK-MEL-28
[39] = test system: SK-MEL-2
[40] = test system: SK-MEL-5
[41] = test system: SK-OV-3
[42] = test system: SNB-19
[43] = test system: SNB-75
[44] = test system: SNB-78
[45] = test system: SW-620
[46] = test system: TK-10
[47] = test system: U-251
[48] = test system: UACC-257
[49] = test system: UO-31
[50] = test system: XF498
[51] = test system: CAKI-1
[52] = test system: M14
[53] = test system: NCI-H226
[54] = test system: OVCAR-4
[55] = test system: SN12C
[56] = test system: SR
[57] = test system: UACC-62
[58] = test system: HCT-15

Measured: GI50

O=C(O)C12C3C4C1C1C2C3C1(Br)C41OCCO1 (stereo not drawn)
inactive: [1] > 100 µM | [2] > 100 µM | [3] > 100 µM | [4] > 100 µM | [5] > 100 µM | [6] > 100 µM | [7] > 100 µM | [8] > 100 µM | [9] > 100 µM | [10] > 100 µM | [11] > 100 µM | [12] > 100 µM | [13] > 100 µM | [14] > 100 µM | [15] > 100 µM | [16] > 100 µM | [17] > 100 µM | [18] > 100 µM | [19] > 100 µM | [20] > 100 µM | [21] > 100 µM | [22] > 100 µM | [23] > 100 µM | [24] > 100 µM | [25] > 100 µM | [26] > 100 µM | [27] > 100 µM | [28] > 100 µM | [29] > 100 µM | [30] > 100 µM | [31] > 100 µM | [32] > 100 µM | [33] > 100 µM | [34] > 100 µM | [35] > 100 µM | [36] > 100 µM | [37] > 100 µM | [38] > 100 µM | [39] > 100 µM | [40] > 100 µM | [41] > 100 µM | [42] > 100 µM | [43] > 100 µM | [44] > 100 µM | [45] > 100 µM | [46] > 100 µM | [47] > 100 µM | [48] > 100 µM | [49] > 100 µM | [50] > 100 µM

Cc1c(C(=O)/C=C/c2ccc([N+](=O)[O-])cc2)[n+]([O-])c2ccccc2[n+]1[O-]
active: [13] 0.923 µM
inactive: [1] 52.1 µM | [2] > 100 µM | [3] > 100 µM | [4] > 100 µM | [51] 64.7 µM | [5] 20.9 µM | [6] > 100 µM | [7] 42.7 µM | [8] 30.6 µM | [9] 57.3 µM | [10] > 100 µM | [11] > 100 µM | [12] 48.4 µM | [14] > 100 µM | [15] > 100 µM | [16] 31.8 µM | [17] 96.6 µM | [18] 55.7 µM | [19] 27 µM | [20] > 100 µM | [21] 93.5 µM | [22] 42.3 µM | [23] 29.2 µM | [52] > 100 µM | [24] > 100 µM | [25] 20.7 µM | [26] > 100 µM | [53] > 100 µM | [27] 28.2 µM | [28] 62.2 µM | [29] 20.5 µM | [30] 95.7 µM | [54] 24.8 µM | [31] > 100 µM | [32] 55.3 µM | [33] 33.6 µM | [34] 29.1 µM | [35] > 100 µM | [36] > 100 µM | [37] 49.1 µM | [38] > 100 µM | [41] > 100 µM | [55] > 100 µM | [42] > 100 µM | [43] 41.4 µM | [44] 65.5 µM | [56] 43 µM | [45] 67 µM | [46] > 100 µM | [47] 92.5 µM | [48] > 100 µM | [57] 41.7 µM | [49] > 100 µM | [50] > 100 µM

Cc1c(N(Cc2ccccc2)Cc2ccccc2)nc(S(C)(=O)=O)nc1S(C)(=O)=O
inactive: [3] 15.3 µM | [4] 4.68 µM | [51] 8.07 µM | [5] 2.2 µM | [7] 1.87 µM | [8] 1.82 µM | [9] 2.2 µM | [10] 1.53 µM | [11] 1.79 µM | [12] 1.66 µM | [13] 2.09 µM | [14] 4.99 µM | [15] 14.7 µM | [16] 3.56 µM | [17] 1.94 µM | [18] 1.74 µM | [19] 2.08 µM | [20] 1.74 µM | [22] 1.84 µM | [23] 1.91 µM | [52] 2.14 µM | [24] 1.54 µM | [25] 2.11 µM | [26] 5.36 µM | [53] 12.7 µM | [27] 1.72 µM | [28] 5.14 µM | [29] 1.73 µM | [30] 1.86 µM | [31] 7.4 µM | [32] 1.85 µM | [33] 2.74 µM | [34] 1.57 µM | [35] 1.95 µM | [36] 17.7 µM | [37] 13 µM | [39] 11.9 µM | [40] 12 µM | [41] 14.4 µM | [55] 2.08 µM | [42] 13.4 µM | [44] 2.2 µM | [56] 1.58 µM | [45] 1.93 µM | [46] 4.2 µM | [47] 2.53 µM | [48] 2.09 µM | [57] 1.71 µM | [49] 12.1 µM | [50] 1.73 µM
2.56 µM: [58]

CCC(O)C1Cc2c(C)cc3c(c2O1)C(=O)c1ccccc1C3=O (stereo not drawn)
19.6 µM: [58]
inactive: [1] 25.8 µM | [2] 18 µM | [3] 36 µM | [4] 27.8 µM | [51] 24.5 µM | [5] 31.3 µM | [6] 16.1 µM | [7] 42 µM | [8] 25.4 µM | [9] 28.7 µM | [10] 62.4 µM | [11] 29.6 µM | [12] 40.6 µM | [13] 17.9 µM | [14] 17.2 µM | [15] 35.9 µM | [16] 29.4 µM | [17] 39.4 µM | [18] 31.5 µM | [19] 29.8 µM | [20] 35.2 µM | [21] 25.8 µM | [22] 27.7 µM | [23] 28.8 µM | [52] 40.1 µM | [24] 41.7 µM | [25] 27.4 µM | [26] 34.6 µM | [53] 46.8 µM | [27] 33.3 µM | [28] 27.3 µM | [29] 21.1 µM | [30] 29.4 µM | [54] 33.3 µM | [31] 72.3 µM | [32] 32.4 µM | [33] 27.9 µM | [35] 25.1 µM | [36] 29.6 µM | [38] 49.2 µM | [39] 44.4 µM | [40] 44.7 µM | [41] 22.6 µM | [55] 35.3 µM | [42] 36.3 µM | [43] 31.8 µM | [44] 33.2 µM | [56] 33.5 µM | [45] 52 µM | [46] 85.3 µM | [47] 26.2 µM | [48] 69 µM | [57] 28.8 µM | [49] 21 µM | [50] 14.3 µM

COc1cccc(C2C(C(=O)O)=C(CO)Oc3cc4c(cc32)OCO4)c1 (stereo not drawn)
> 100 µM: [58]
inactive: [2] > 100 µM | [4] > 100 µM | [51] > 100 µM | [5] > 100 µM | [6] > 100 µM | [7] > 100 µM | [8] > 100 µM | [10] > 100 µM | [13] > 100 µM | [14] > 100 µM | [16] > 100 µM | [17] > 100 µM | [18] > 100 µM | [19] > 100 µM | [20] > 100 µM | [22] > 100 µM | [23] > 100 µM | [52] > 100 µM | [24] > 100 µM | [25] > 100 µM | [26] > 100 µM | [53] > 100 µM | [27] > 100 µM | [28] > 100 µM | [29] > 100 µM | [30] > 100 µM | [32] > 100 µM | [33] > 100 µM | [35] > 100 µM | [36] > 100 µM | [37] > 100 µM | [38] > 100 µM | [39] > 100 µM | [40] > 100 µM | [41] > 100 µM | [55] > 100 µM | [42] > 100 µM | [43] > 100 µM | [44] > 100 µM | [45] > 100 µM | [46] > 100 µM | [47] > 100 µM | [57] > 100 µM | [49] > 100 µM | [50] 36.5 µM
